Read-outs that look alike come from different tables or passages of the source. *1 amine or outer side, *2 acyl side, *3 side chain or, on linkers, in order; H or OH if unused. Where a SMILES comes first, the peptide text is derived from it. Bridges are numbered along the chain shown (N, C = ends). Roman numbers before positions name the chains, in order. [ ]: non-standard residue; d: D form. Hexamethylenediamine = C(CCCN[*:2])CCN[*:1]; Dip = N[C@H](C(=O)O)C(c1ccccc1)c1ccccc1; Chg = N[C@H](C(=O)O)C1CCCCC1; NMeA = CN[C@@H](C)C(=O)O
Legend:
[1] = system: NCI-H2122, A549, and NCI-H1944 cells; assay: Cell senescence β-galactosidase staining; type: cell-based, human; conditions: NCI‐H2122 cells; candidate drugs 10 μM
Protocol: Cell senescence β-galactosidase staining
NCI-H2122, A549, and NCI-H1944 cells in the logarithmic growth phase were seeded into 48-well plates and cultured overnight. The supernatant was aspirated and fresh serum-free (0%), low-serum (3%), or regular serum (10%) medium with different drugs was added for 48 h. When the supernatant was discarded, β-galactosidase staining fixation fluid were added for 15 min and β-galactosidase staining solution were imported overnight at 37 ℃.
Finally, the staining results were recorded using an inverted microscope.

SHP2 = target: T1, SHP2 (Homo sapiens, UniProt Q06124); assay: Cellular thermal shift assay (CETSA); type: binding; conditions: NCI‐H2122 cell lysate
T1 construct: endogenous in cells; host or cells: NCI-H2122
T1 sequence (Q06124 1-593): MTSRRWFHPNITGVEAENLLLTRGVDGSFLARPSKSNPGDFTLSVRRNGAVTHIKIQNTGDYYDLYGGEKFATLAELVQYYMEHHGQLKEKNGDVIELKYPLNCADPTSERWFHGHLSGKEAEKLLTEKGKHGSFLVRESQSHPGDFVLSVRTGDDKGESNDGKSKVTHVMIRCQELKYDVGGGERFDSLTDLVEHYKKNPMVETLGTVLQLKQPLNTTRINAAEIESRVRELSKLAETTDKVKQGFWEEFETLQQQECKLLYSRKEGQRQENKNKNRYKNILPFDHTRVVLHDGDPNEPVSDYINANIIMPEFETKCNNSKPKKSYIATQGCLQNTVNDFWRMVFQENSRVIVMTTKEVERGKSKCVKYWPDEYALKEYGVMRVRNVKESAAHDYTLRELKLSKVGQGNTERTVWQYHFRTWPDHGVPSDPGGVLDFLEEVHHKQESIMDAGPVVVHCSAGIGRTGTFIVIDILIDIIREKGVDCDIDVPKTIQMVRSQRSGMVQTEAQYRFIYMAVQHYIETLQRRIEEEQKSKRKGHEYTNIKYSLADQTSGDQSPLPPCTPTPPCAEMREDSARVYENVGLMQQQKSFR
Protocol: NCI‐H2122 cells were harvested and resuspended with pre‐cooled PBS containing 1% cocktail, which was then frozen in liquid nitrogen for 5 min and thawed in a water bath at 37 °C for 5 min for three repetitions. The supernatant was collected via centrifugation at 4 °C (15 000 × g, 20 min), divided into two equal portions; one was added with test drugs or various concentrations of embelin, and the other was added with DMSO as control and subsequently incubated at 25 °C for 30 min. All samples were heated at temperatures ranging from 52–70 °C for 3 min, and subsequently in an ice bath for 3 min and collected by centrifugation at 4 °C (15 000 × g, 20 min), and added with protein sampling buffer at 100 °C for 5 min, followed by analysis of protein stability using western blotting.

A549 and NCI‐H2122 cells = assay: Cell proliferation in monolayer culture (CCK-8); type: cell-based, human
Protocol: For the adherent cell viability assay, cells in the logarithmic growth phase were seeded in 96-well culture plates at a density of 5×103 well-1 and incubated overnight. Diluted compounds or DMSO were added, or specific treatments were incubated at 37 °C and 5% CO2 for 24 h or 48 h. Cell viability was determined using CCK-8 or CellLightTM Cell Viability Assay Kit, according to the manufacturer's protocol. The luminescence signals of the treated samples were normalized to those of the DMSO group. […]
Figure S7. Targeting SHP2 and XIAP produces a synthetic lethal effect. (A) Effects of NSC-87877 on cell viability of A549 and NCI-H2122 cells after 24 and 48 h were determined using the CCK-8. Bars, ± SEM. The curves were plotted using a variable slope (four-parameter) non-linear fit. (B, E, F, and I) Effects of Na3VO4 (B), birinapant (E), BV-6 (F), and LCL161 (I) on cell viability of human NCI-H2122 cells at 48 h were determined using the CCK-8. *p < 0.05, **p < 0.01 and ***p < 0.001 compared to control group (unpaired two-tailed Student’s t-test).(C, G) Effects of SHP099 (C) and GDC-0152 (G) on cell viability after 24 and 48 h were determined using the CCK-8. Bars, ± SEM. The curves were plotted using a variable slope (four-parameter) non-linear fit.(D, H) Effects of SHP099 (D) and GDC-0152 (H) on cell viability were determined after 48 h using intracellular ATP chemiluminescence. **p < 0.01 and ***p < 0.001 compared to control group (unpaired two-tailed Student’s t-test).(J) Effects of SHP099 and GDC-0152 separately and in combination, and the effect of embelin for 24 h on the cell viability were assessed using intracellular ATP […]
tailed Student’s t-test).(K) Effects of SHP099 and GDC-0152 separately and in combination with […] on the cell viability of human KRAS-WT and -mutant cells were assessed using a colony formation assay. (L, M) A549 and NCI-H2122 cells were instantaneously transfected with siPTPN11 and siXIAP separately and together for 24 h under

HePTP = target: T2, HePTP (Homo sapiens, UniProt P35236); assay: PTPs activity assay (DiFMUP); type: biochemical
T2 construct: His; made in house; host or cells: E. coli
T2 sequence (P35236 1-360): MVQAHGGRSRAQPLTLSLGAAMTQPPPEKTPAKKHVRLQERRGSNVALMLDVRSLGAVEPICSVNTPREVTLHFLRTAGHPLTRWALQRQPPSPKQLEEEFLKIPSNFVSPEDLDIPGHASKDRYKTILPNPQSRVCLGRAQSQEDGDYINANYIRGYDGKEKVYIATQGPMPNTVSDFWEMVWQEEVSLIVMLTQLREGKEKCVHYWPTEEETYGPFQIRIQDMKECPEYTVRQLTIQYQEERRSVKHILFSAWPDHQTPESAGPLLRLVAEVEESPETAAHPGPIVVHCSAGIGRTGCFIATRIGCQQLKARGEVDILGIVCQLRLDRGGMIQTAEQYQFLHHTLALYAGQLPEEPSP
Protocol: (§1) Catalytic activity screening methods for PTPs using candidate compounds were performed as previously described.^[ [77] ^] In brief, soluble fusion PTP proteins, His‐ΔSHP2, encompassing the peptide from amino acids 205–593 retaining PTP activity, His‐ΔSHP2^K325A, His‐ΔSHP1, encompassing the peptide from amino acids 202–595 retaining PTP activity, His‐PTP1B, His‐HePTP, His‐VHR, and His‐TCPTP were cloned, expressed, and purified in E. coli. After determining protein concentration using bicinchoninic acid (BCA) assay kit, 1 µg fusion protein, 10 µM library compound were added in 100 µL reaction mixture (55 mM 4‐(2‐hydroxyethyl)‐1‐piperazineethanesulfonic acid [HEPES], 100 mM sodium chloride [NaCl], 0.5 mM ethylenediaminetetraacetic acid [EDTA], 1 mM dithiothreitol [DTT], 0.01% Triton X‐100, 0.002% bovine serum albumin [BSA], and 0.1% dimethyl sulfoxide [DMSO]) and incubated at 37 °C for 30 min in the dark, with Na3VO4 as positive control. The detection substrate DiFMUP (50 µM) was promptly added to each reaction and functioned at 37 °C for 30 min in the dark. The fluorescence intensity was then measured using Multimode Plate Reader (λa = 358 nm, λe = 455 nm, PerkinElmer, USA).

PTP1B = target: T3, PTP1B (Homo sapiens, UniProt P18031); assay: PTPs activity assay (DiFMUP); type: biochemical
T3 construct: His; made in house; host or cells: E. coli
T3 sequence (P18031 1-435): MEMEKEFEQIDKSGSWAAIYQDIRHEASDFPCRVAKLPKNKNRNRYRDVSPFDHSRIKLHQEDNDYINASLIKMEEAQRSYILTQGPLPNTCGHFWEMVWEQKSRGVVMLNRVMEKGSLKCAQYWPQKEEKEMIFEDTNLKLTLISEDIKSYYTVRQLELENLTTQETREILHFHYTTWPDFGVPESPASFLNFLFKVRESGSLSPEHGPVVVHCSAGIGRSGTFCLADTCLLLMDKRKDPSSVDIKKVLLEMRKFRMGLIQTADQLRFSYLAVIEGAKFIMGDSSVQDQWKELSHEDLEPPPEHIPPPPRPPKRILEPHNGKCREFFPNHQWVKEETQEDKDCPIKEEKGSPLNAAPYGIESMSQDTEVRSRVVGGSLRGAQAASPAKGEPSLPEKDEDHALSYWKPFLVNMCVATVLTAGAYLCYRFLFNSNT
Protocol: as §1

TCPTP = target: T4, TCPTP (Homo sapiens, UniProt P17706); assay: PTPs activity assay (DiFMUP); type: biochemical
T4 construct: His; made in house; host or cells: E. coli
T4 sequence (P17706 1-415): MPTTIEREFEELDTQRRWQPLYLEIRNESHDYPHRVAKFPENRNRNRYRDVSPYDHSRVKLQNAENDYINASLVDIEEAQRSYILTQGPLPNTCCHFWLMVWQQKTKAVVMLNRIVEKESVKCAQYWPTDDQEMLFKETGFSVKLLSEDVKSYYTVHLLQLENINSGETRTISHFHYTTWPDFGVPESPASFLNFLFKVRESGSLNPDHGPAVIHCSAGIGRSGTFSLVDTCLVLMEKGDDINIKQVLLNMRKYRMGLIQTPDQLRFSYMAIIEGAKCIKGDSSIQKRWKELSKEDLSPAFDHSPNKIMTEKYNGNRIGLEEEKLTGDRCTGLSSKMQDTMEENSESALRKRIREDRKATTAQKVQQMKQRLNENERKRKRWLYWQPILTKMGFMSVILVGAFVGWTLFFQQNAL
Protocol: as §1

VHR = target: T5, VHR (Homo sapiens, UniProt P51452); assay: PTPs activity assay (DiFMUP); type: biochemical
T5 construct: His; made in house; host or cells: E. coli
T5 sequence (P51452 whole entry): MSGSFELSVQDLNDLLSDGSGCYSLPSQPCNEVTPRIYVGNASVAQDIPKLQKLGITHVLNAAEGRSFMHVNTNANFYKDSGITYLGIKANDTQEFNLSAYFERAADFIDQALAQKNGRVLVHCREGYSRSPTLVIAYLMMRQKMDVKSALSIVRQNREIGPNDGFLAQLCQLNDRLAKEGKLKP
Protocol: as §1

ΔSHP1 = target: T6, ΔSHP1 (Homo sapiens, UniProt P29350); assay: PTPs activity assay (DiFMUP); type: biochemical
T6 construct: His‐ΔSHP1, encompassing the peptide from amino acids 202–595 retaining PTP activity; His; made in house; host or cells: E. coli
T6 sequence (P29350 202-595, stated change not applied): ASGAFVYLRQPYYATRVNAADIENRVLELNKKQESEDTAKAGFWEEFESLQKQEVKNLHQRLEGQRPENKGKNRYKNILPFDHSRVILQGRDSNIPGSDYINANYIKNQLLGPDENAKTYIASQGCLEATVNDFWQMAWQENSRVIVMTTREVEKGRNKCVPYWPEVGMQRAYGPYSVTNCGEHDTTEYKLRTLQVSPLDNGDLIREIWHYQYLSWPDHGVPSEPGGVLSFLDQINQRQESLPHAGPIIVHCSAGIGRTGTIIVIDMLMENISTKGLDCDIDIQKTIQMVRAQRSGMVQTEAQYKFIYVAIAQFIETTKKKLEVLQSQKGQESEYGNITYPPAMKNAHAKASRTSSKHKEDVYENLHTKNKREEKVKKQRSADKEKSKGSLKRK
Protocol: as §1

ΔSHP2 = target: T7, ΔSHP2 (Homo sapiens, UniProt Q06124); assay: PTPs activity assay (DiFMUP); type: biochemical
T7 construct: His‐ΔSHP2, encompassing the peptide from amino acids 205–593 retaining PTP activity; His; made in house; host or cells: E. coli
T7 sequence (Q06124 205-593): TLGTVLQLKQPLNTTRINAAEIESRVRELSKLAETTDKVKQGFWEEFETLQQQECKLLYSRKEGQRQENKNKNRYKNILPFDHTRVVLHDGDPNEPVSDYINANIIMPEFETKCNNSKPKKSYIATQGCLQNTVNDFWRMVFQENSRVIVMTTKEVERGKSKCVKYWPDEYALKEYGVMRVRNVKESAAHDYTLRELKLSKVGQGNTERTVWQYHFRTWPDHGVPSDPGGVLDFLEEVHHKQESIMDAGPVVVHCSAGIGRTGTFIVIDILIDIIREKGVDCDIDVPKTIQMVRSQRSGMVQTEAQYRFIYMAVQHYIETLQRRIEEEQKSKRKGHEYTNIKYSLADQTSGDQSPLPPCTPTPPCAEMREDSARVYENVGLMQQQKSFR
Protocol: as §1

effect on SHP2 protein stability (CETSA) (SHP2)	IC50 (PTP1B; read-out: IC50 of PTPs PTP1B) [µM]	SMILES	induction of cell senescence [1]	effect on cell proliferation in monolayer cell culture mode (A549 and NCI‐H2122 cells)	IC50 (HePTP) [µM]	IC50 (PTP1B) [µM]	IC50 (TCPTP) [µM]	IC50 (VHR) [µM]	IC50 (ΔSHP1) [µM]	IC50 (ΔSHP2) [µM]
	> 200	CC1(C)CCC2=C(O1)c1ccccc1C(=O)C2=O [S7261, β‐Lapachone]			> 200		> 200	> 200	> 200	34.2
	16.6	CC1(C)CCC(CN2CCN(c3ccc(C(=O)NS(=O)(=O)c4ccc(NCC5CCOCC5)c([N+](=O)[O-])c4)c(Oc4cnc5[nH]ccc5c4)c3)CC2)=C(c2ccc(Cl)cc2)C1 [S8048, Venetoclax]			20		9.43	36.9	81.3	2.07

Second part, the molecule before the results:

SMILES	effect on SHP2 protein stability (CETSA) (SHP2)	IC50 (PTP1B; read-out: IC50 of PTPs PTP1B) [µM]	induction of cell senescence [1]	effect on cell proliferation in monolayer cell culture mode (A549 and NCI‐H2122 cells)	IC50 (HePTP) [µM]	IC50 (PTP1B) [µM]	IC50 (TCPTP) [µM]	IC50 (VHR) [µM]	IC50 (ΔSHP1) [µM]	IC50 (ΔSHP2) [µM]
CN[C@@H](C)C(=O)N[C@H](C(=O)N1CCC[C@H]1C(=O)N[C@H](C(=O)NCCCCCCNC(=O)[C@@H](NC(=O)[C@@H]1CCCN1C(=O)[C@@H](NC(=O)[C@H](C)NC)C1CCCCC1)C(c1ccccc1)c1ccccc1)C(c1ccccc1)c1ccccc1)C1CCCCC1 [BV‐6] (I: H-[NMeA][Chg]P[Dip] / II: H-[NMeA][Chg]P[Dip]; linker I:C-II:C via Hexamethylenediamine)	did not affect SHP2 protein stability		induced cellular senescence	partially inhibited cell proliferation						
CC[C@H](NC(=O)[C@H](C)NC)C(=O)N1C[C@@H](O)C[C@H]1Cc1c(-c2[nH]c3cc(F)ccc3c2C[C@@H]2C[C@H](O)CN2C(=O)[C@H](CC)NC(=O)[C@H](C)NC)[nH]c2cc(F)ccc12 [Birinapant]	did not affect SHP2 protein stability		induced cellular senescence	almost no effect						
CN[C@@H](C)C(=O)N[C@H](C(=O)N1CCC[C@H]1c1nc(C(=O)c2ccc(F)cc2)cs1)C1CCCCC1 [LCL‐161]	did not affect SHP2 protein stability		induced cellular senescence	almost no effect						
CC(C)=CCC[C@]1(C)C=Cc2c(O)c3c(c(CC=C(C)C)c2O1)O[C@]12C(=C[C@@H]4C[C@H]1C(C)(C)O[C@@]2(C/C=C(/C)C(=O)O)C4=O)C3=O [S2448, Gambogic acid]					> 200	30.3	294	123	> 200	11.8
Cc1cc2c(C(C)C)c(O)c(O)c(C=O)c2c(O)c1-c1c(C)cc2c(C(C)C)c(O)c(O)c(C=O)c2c1O [S2812, AT101]		77.6			135		197	141	197	39.5
